Assay results from a melting point compilation (Tetko et al.).
Residues, ends and D or L forms follow the SMILES beside them. *: point of attachment. Boc = CC(C)(C)OC(=O)*; Bn = c1ccc(C*)cc1

CC(=O)Nc1cc(N2CCN(Cc3ccccc3)CC2)ccc1OCC(=O)N[C@@H](CC(N)=O)C(=O)N[C@@H](Cc1ccccc1)[C@H](O)C(=O)N1CCC[C@H]1C(=O)NC(C)(C)C
melting point: 119 to 127 °C

Cc1ccc2c(c1)CC(=O)N2c1c(F)cc(F)cc1Cl
melting point: 137 to 140 °C

CCN(CC)CCN=S(=O)(c1ccccc1)c1ccco1 (stereo unspecified)
melting point: 133 °C

Cc1cc(Cn2nnn(-c3cc(C(F)(F)F)cc(C(F)(F)F)c3)c2=O)ccc1N(C(=O)c1c(I)cccc1C(N)=O)C(C)(C)CS(C)=O (stereo unspecified)
melting point: 165 to 171 °C

CC1(C)CC(C(O)CNc2nc(NCCCCCCNc3nc(NCC(O)C4CC(C)(C)NC(C)(C)C4)nc(NCC(O)C4CC(C)(C)NC(C)(C)C4)n3)nc(NCC(O)C3CC(C)(C)NC(C)(C)C3)n2)CC(C)(C)N1 (stereo unspecified)
melting point: 165 to 168 °C

CCCCCCCCCCCCCCCCCCCCCCCC[C@@H](C(=O)O)[C@H](O)CCCCCCCCCCCCCCC[C@@H]1C[C@@H]1CCCCCCCCCCCCCCCCCCC(=O)[C@@H](C)CCCCCCCCCCCCCCCCCC
melting point: 66 to 68 °C

COc1cc(OC)c(/C=C/C(c2ccc(OC)c(NC(=O)c3cc([N+](=O)[O-])cc([N+](=O)[O-])c3)c2)S(=O)(=O)C(/C=C/c2c(OC)cc(OC)cc2OC)c2ccc(OC)c(NC(=O)c3cc([N+](=O)[O-])cc([N+](=O)[O-])c3)c2)c(OC)c1 (stereo unspecified)
melting point: 277 to 279 °C

CCCCCCCCCCCCc1cc2c(cc1CCCCCCCCCCCC)C(=O)c1c(c(O)c3cc(CCCCCCCCCCCC)c(CCCCCCCCCCCC)cc3c1O)C2=O
melting point: 66 to 76 °C

CC(C)(C)c1cc(-c2cc(C(C)(C)C)cc(C(C)(C)C)c2OCP(=O)(c2ccccc2)c2ccccc2)c(OCP(=O)(c2ccccc2)c2ccccc2)c(C(C)(C)C)c1
melting point: 211 to 212 °C

CCOC(=O)Cc1ccc(-c2nc(COc3ccc(COc4nn(-c5ccccc5)cc4/C=C/c4nc(N5CCN(C(=O)OC(C)(C)C)CC5)sc4C)cc3OC)c(C)o2)cc1
melting point: 112 to 114 °C

CC(C)(C)OC(=O)N1CCN(c2ccc(C(=O)O)cc2)CC1
melting point: 195 °C

CC(C)[C@H](NC(=O)N(C)Cc1csc(N)n1)C(=O)N[C@@H](Cc1ccccc1)[C@H](O)[C@@H](O)[C@H](Cc1ccccc1)NC(=O)[C@@H](NC(=O)N(C)Cc1csc(N)n1)C(C)C
melting point: 122 to 124 °C

CC(COC(=O)CCc1cc(C(C)(C)C)c(O)c(C(C)(C)C)c1)(COC(=O)CCc1cc(C(C)(C)C)c(O)c(C(C)(C)C)c1)COC(=O)CCc1cc(C(C)(C)C)c(O)c(C(C)(C)C)c1
melting point: 55 to 78 °C

Cc1ccc2cccc(OCc3c(Cl)ccc(S(=O)(=O)N4CCC[C@H]4C(=O)NC4CCN(C(=O)CCCN(C=NC(=O)OC(C)(C)C)NC(=O)OC(C)(C)C)CC4)c3Cl)c2n1
melting point: 102 to 105 °C

O=C(NCCCN1CCOCC1)c1ccc(-c2ccc(Br)cc2)o1
melting point: 83 to 100 °C

Cc1ccccc1CNC(=O)[C@H]1N(C(=O)[C@@H](O)[C@H](Cc2ccccc2)NC(=O)C(C)C(C)C(=O)OC[C@H]2O[C@@H](n3cc(C)c(=O)[nH]c3=O)CC2N=[N+]=[N-])CSC1(C)C (stereo partly specified)
melting point: 116 to 118 °C

CC(C)[C@H](NC(=O)N(C)Cc1nccs1)C(=O)N[C@@H](Cc1ccccc1)[C@@H](O)[C@H](O)[C@H](Cc1ccccc1)NC(=O)[C@@H](NC(=O)N(C)Cc1nccs1)C(C)C
melting point: 176 to 178 °C

CC(=O)OCC(COC(C)=O)NC(=O)c1c(I)c(C(=O)NC(COC(C)=O)COC(C)=O)c(I)c(N2C(=O)OCC2CO)c1I (stereo unspecified)
melting point: 235 to 240 °C

CCCCCCCCCCN(CCCCN(CCCN(CCCCCCCCCC)C(=O)c1cccc(O)c1O)C(=O)c1cccc(O)c1O)C(=O)c1cccc(O)c1O
melting point: 63 to 65 °C

C[C@H](Cc1ccc(OCCCN2CCCCC2)c(OCCCN2CCCCC2)c1)[C@@H](C)Cc1ccc(OCCCN2CCCCC2)c(OCCCN2CCCCC2)c1
melting point: 84 to 86 °C

COc1cc(OC)c(/C=C/C(c2ccc(OC)c(NCCC(=O)O)c2)S(=O)(=O)C(/C=C/c2c(OC)cc(OC)cc2OC)c2ccc(OC)c(NCCC(=O)O)c2)c(OC)c1 (stereo unspecified)
melting point: 156 to 158 °C

O=[N+]([O-])c1cc(Sc2ccc(-c3c(S(=O)c4ccc(Cl)c([N+](=O)[O-])c4-c4ccc(Sc5ccc(Cl)c([N+](=O)[O-])c5)cc4)ccc(Cl)c3[N+](=O)[O-])cc2)ccc1Cl
melting point: 144 to 146 °C

CCOC(=O)COc1cccc2c1CCc1sc(S(=O)CC(c3ccccc3)c3ccccc3)nc1-2 (stereo unspecified)
melting point: 127 to 129 °C

CC(NC(=O)C(Cc1ccc(OCc2ccccc2)cc1)NC(=O)C(COCc1ccccc1)NC(=O)C(Cc1c[nH]c2ccccc12)NC(=O)OC(C)(C)C)C(=O)O (stereo unspecified) (Boc-WS(Bn)Y(Bn)A-OH; configuration not given here)
melting point: 93 to 94 °C

CCC(C)C1NC(=O)C(NC(=O)C(CC(C)C)N(C)C(C)=O)C(C)OC(=O)C(Cc2ccc(OC)cc2)N(C)C(=O)C2CCCN2C(=O)C(CC(C)C)NC(=O)C(C)C(=O)C(C(C)C)OC(=O)CC1OC(C)=O (stereo unspecified)
melting point: 130 to 133 °C

COc1ccc([C@@H]2Sc3ccccc3N(CCN(C)C)C(=O)[C@@H]2OC(=O)CCC(=O)O[C@H]2C(=O)N(CCN(C)C)c3ccccc3S[C@H]2c2ccc(OC)cc2)cc1 (relative stereo)
melting point: 112 to 115 °C

CN1CCC(c2nn(-c3ccncc3)c3ccccc23)CC1
melting point: 205 to 207 °C

CC(=O)N(CC(CO)(CO)CN(Oc1c(I)c(C(=O)N(CCO)CCO)c(I)c(C(=O)N(CCO)CCO)c1I)C(C)=O)Oc1c(I)c(C(=O)N(CCO)CCO)c(I)c(C(=O)N(CCO)CCO)c1I
melting point: 198 °C

CCCCCCCCCCCCCCCCCCOC(=O)C1(C(=O)OCCCCCCCCCCCCCCCCCC)COC2(CC(C)(C)NC(C)(C)C2)OC1
melting point: 54 to 56 °C

CC[C@H](C)[C@H](NC(=O)N(C)Cc1ccccn1)C(=O)NC(Cc1ccccc1)C(O)C(O)C(Cc1ccccc1)NC(=O)[C@@H](NC(=O)N(C)Cc1ccccn1)[C@@H](C)CC (stereo partly specified)
melting point: 160 to 161 °C

CN=S(=O)(NC(=O)Nc1nc(C)nc(OC)n1)c1ccccc1Cl (stereo unspecified)
melting point: 154 to 160 °C

O=[N+]([O-])c1ccccc1N1CCc2cc(Br)ccc21
melting point: 112 to 114 °C

CCCCCCCCCCCCCC=CC(OC(=O)c1ccccc1)C(COC1OC(CO)C(OCCC(C(=O)OC(C)(C)C)C(=O)OC(C)(C)C)C(O)C1O)NC(=O)CCCCCCCCCCCCCCC (stereo unspecified)
melting point: 48 to 50 °C

O=c1[nH]c(=Cc2ccc(OCc3ccccc3)cn2)c(=O)[nH]c1=Cc1ccc(OCc2ccccc2)cn1
melting point: 283 to 285 °C

CS(=O)(=O)C1CCN(Cc2ccc(COc3cccc4c3CN(C3CCC(=O)NC3=O)C4=O)cc2)CC1 (stereo unspecified)
melting point: 173 to 175 °C

Cc1cccc(-c2cc3ccccc3c(Cl)n2)n1
melting point: 142 to 144 °C

COc1cc(OC)c(/C=C/C(c2ccc(OC)c(NC(=O)CN3CCN(C)CC3)c2)S(=O)(=O)C(/C=C/c2c(OC)cc(OC)cc2OC)c2ccc(OC)c(NC(=O)CN3CCN(C)CC3)c2)c(OC)c1 (stereo unspecified)
melting point: 176 to 178 °C

CN(C(=O)Cc1c(-c2ccccc2)c2ccccc2c(=O)n1C)c1cc(C(F)(F)F)cc(C(F)(F)F)c1
melting point: 193 to 194 °C

NS(=O)(=O)c1cccc(-c2noc(-c3cnn4ccc(-c5ccc(C(F)(F)F)cc5)nc34)n2)c1
melting point: 270 °C

CC(C)OC(=O)C(CCC(C(=O)OC(C)C)N1CCN(CC(=O)OC(C)(C)C)CCN(C=O)CCN(CC(=O)OC(C)(C)C)CC1)N1CCN(CC(=O)OC(C)(C)C)CCN(C=O)CCN(CC(=O)OC(C)(C)C)CC1 (stereo unspecified)
melting point: 125 to 127 °C

CCCCOC(=O)c1ccc(=O)[nH]n1
melting point: 79 to 80 °C

CN1C(=O)C(Br)=C(c2cn(C3OC(COCc4ccccc4)C(OCc4ccccc4)C(OCc4ccccc4)C3OCc3ccccc3)c3ccccc23)C1=O (stereo unspecified)
melting point: 55 °C

COc1cccc(Sc2cc3c(cc2Sc2cccc(OC)c2)C(=O)c2c(c(O)c4cc(Sc5cccc(OC)c5)c(Sc5cccc(OC)c5)cc4c2O)C3=O)c1
melting point: 287 to 292 °C

CCN(c1nc(OCCOC(=O)CCC(=O)OCCOc2nc(N(CC)C3CC(C)(C)NC(C)(C)C3)nc(N(CC)C3CC(C)(C)NC(C)(C)C3)n2)nc(N(CC)C2CC(C)(C)NC(C)(C)C2)n1)C1CC(C)(C)NC(C)(C)C1
melting point: 85 °C

CC(CCC(=O)NCCNCCCNC(=O)CN1CCN(CC(=O)O)CCN(CC(=O)O)CCN(CC(=O)O)CC1)C1CCC2C3C(O)CC4CC(O)CCC4(C)C3CC(O)C12C (stereo unspecified)
melting point: 154 °C

CC(=O)Nc1cc(C(=O)NC2OC(COC(C)=O)C(OC3OC(COC(C)=O)C(OC(C)=O)C(OC(C)=O)C3OC(C)=O)C(OC(C)=O)C2OC(C)=O)ccc1Cl (stereo unspecified)
melting point: 122 to 124 °C

CCCCCCCCCCCCCC=CC(OC(=O)c1ccccc1)C(COC1OC(CO)C(O)C(OCCCCC(C(=O)OC(C)(C)C)C(=O)OC(C)(C)C)C1O)NC(=O)CCCCCCCCCCCCCCC (stereo unspecified)
melting point: 131 to 132 °C

Cc1cc(Cc2ccc(O)c(C(c3cc(C)c(O)cc3C)c3cc(C)c(O)cc3C)c2)c(O)c(Cc2ccc(O)c(C(c3cc(C)c(O)cc3C)c3cc(C)c(O)cc3C)c2)c1
melting point: 276 °C

O=C(NCCCCCCCCCCCCNC(=O)C(O)C(O)C(O)C(O)COC1OC(CO)C(O)C(O)C1O)C(O)C(O)C(O)C(O)COC1OC(CO)C(O)C(O)C1O (stereo unspecified)
melting point: 114 to 123 °C

CC1(C)CC(OC(=O)CCCCCCCCC(=O)OC2CC(C)(C)N(OC3CCCCCCCCCCC3)C(C)(C)C2)CC(C)(C)N1OC1CCCCCCCCCCC1
melting point: 70 to 78 °C

CCn1cc(C(=O)N[C@@H]2C(=O)N[C@@H]2C(=O)OC)c(=O)c2ccc(C)nc21 (relative stereo)
melting point: 223 to 224 °C

CC(C)[C@H](NC(=O)N1CCN(c2ccccc2)CC1)C(=O)N[C@@H](Cc1ccccc1)[C@@H](O)[C@H](O)[C@H](Cc1ccccc1)NC(=O)[C@@H](NC(=O)N1CCN(c2ccccc2)CC1)C(C)C
melting point: 165 to 166 °C

FC(F)(F)C(F)(F)C(F)(F)C(F)(F)C(F)(F)C(F)(F)CCc1ccc(P(c2ccc(CCC(F)(F)C(F)(F)C(F)(F)C(F)(F)C(F)(F)C(F)(F)F)cc2)c2ccc(CCC(F)(F)C(F)(F)C(F)(F)C(F)(F)C(F)(F)C(F)(F)F)cc2)cc1
melting point: 49.9 to 52.4 °C

CCc1nc2c(N)nc3cc(OCCCc4cccnc4)ccc3c2s1
melting point: 172 to 173 °C

CC(C)=CCCC(C)=CCCC(C)=CCCC(C)=CCCC(C)=CCCC(C)=CCCC(C)=CCCC(C)=CCCC(C)=CCCC(C)=CCNCC12CCCN1CCC2
melting point: 59 to 61 °C

CC[C@H](C)[C@H](NC(=O)OCC1c2ccccc2-c2ccccc21)C(=O)N[C@@H](Cc1ccc(OC(C)(C)C)cc1)C(=O)N[C@@H](C)C(=O)NCc1c(OC)ccc2c1Oc1c(ccc(OC)c1CC(=O)OCc1ccccc1)C2(C)C
melting point: 218 to 220 °C
